Source: ChEMBL document CHEMBL3137667, “[Drug-induced liver injury; fourteenth updated edition of the bibliographic database of liver injuries and related drugs]” (Gastroenterol Clin Biol, 2004)
Structures can show the parent of a compound that is named as a salt.

Assays:
[1] = human, serum
[2] = Highest frequency of moderate liver toxicity observed during clinical trials, expressed as a percentage. [column '% BIOL' in source]; details: human
[3] = human
[4] = human; remark: listed apart in the source
[5] = Times to onset, minimal and maximal, observed in the indexed observations. [column 'DELAI' in source]; details: human
[6] = human; remark: listed apart in the source
[7] = human; remark: listed apart in the source
[8] = human; remark: listed apart in the source
[9] = human, serum; remark: listed apart in the source
[10] = human; remark: listed apart in the source
[11] = Highest frequency of acute liver toxicity observed during clinical trials, expressed as a percentage. [column '% AIGUE' in source]; details: human
[12] = human; remark: listed apart in the source
[13] = human; remark: listed apart in the source
[14] = human; remark: listed apart in the source
[15] = human, serum, 4383 h
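Throughout, for Hepatotoxicity (association with vascular disease): count of indexed literature references reporting vascular liver injury in humans, e.g. peliosis hepatitis, hepatic veno-occlusive disease or Budd-Chiari syndrome.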
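Throughout, for Hepatotoxicity (benign tumour): value is a count of indexed literature references citing a benign tumour confirmed by histopathology.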
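Throughout, for Hepatotoxicity (choleostasis): human cholestatic liver injury, shown by histopathology or by peak ALT or AST elevation over alkaline phosphatase ratio below 2, value counts indexed literature reports.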
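Throughout, for Hepatotoxicity (chronic liver disease): chronic liver injury confirmed by histopathology or persistently raised serum aminotransferase activity beyond 6 months, value given as the count of indexed literature references.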
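Throughout, for Hepatotoxicity (cirrhosis): value is a count of indexed literature references reporting cirrhosis confirmed by histopathology.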
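Throughout, for Hepatotoxicity (cytolytic): human cytolytic liver injury, shown by histopathology or by a ratio above 5 of peak ALT or AST elevation to alkaline phosphatase elevation, value counts indexed references.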
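Throughout, for Hepatotoxicity (granulomatous hepatitis): value is a count of indexed literature references reporting granulomatous liver disease confirmed by histopathology.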
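Throughout, for Hepatotoxicity (malignant tumour): malignant tumour confirmed by histopathology, value gives the count of indexed literature references reporting it.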
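Throughout, for Hepatotoxicity (severe hepatitis): human clinical data: severe hepatitis, meaning potentially life-threatening liver failure or clinically observed cases, the value counts how many indexed literature references report it.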
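Throughout, for Hepatotoxicity (steatosis): steatosis confirmed by histopathology, value is the count of indexed references.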

Structure (SMILES)	Hepatotoxicity (moderate) [1]	Hepatotoxicity (moderate) [2] [%]	Hepatotoxicity (steatosis) [3]	Hepatotoxicity (benign tumour) [4]	Hepatotoxicity (time to onset) [5]	Hepatotoxicity (cirrhosis) [6]	Hepatotoxicity (granulomatous hepatitis) [7]	Hepatotoxicity (malignant tumour) [8]	Hepatotoxicity (acute) [9]	Hepatotoxicity (cytolytic) [10]	Hepatotoxicity (acute) [11] [%]	Hepatotoxicity (association with vascular disease) [12]	Hepatotoxicity (severe hepatitis) [13]	Hepatotoxicity (choleostasis) [14]	Hepatotoxicity (chronic liver disease) [15]
CSc1nc2cc(Cl)c(Oc3cccc(Cl)c3Cl)cc2[nH]1 [TRICLABENDAZOLE]	0	0	0	0	3 days	0	0	0	1	0	0.7	0	0	1	0
CCCCCCCCCCC[C@@H](C[C@@H]1OC(=O)[C@H]1CCCCCC)OC(=O)[C@H](CC(C)C)NC=O [ORLISTAT]	0	0	0	0	3 weeks - 1.5 months	0	0	0	2	1	0	0	1	1	0
Cn1nnnc1SCC1=C(C(=O)O)N2C(=O)[C@@H](NC(=O)[C@H](O)c3ccccc3)[C@H]2SC1 [CEFAMANDOLE]	13	75	0	0	4 days	0	0	0	2	0	2.4	0	0	1	0
CC(=O)[C@H]1CC[C@H]2[C@@H]3CC[C@@H]4C[C@H](O)CC[C@]4(C)[C@H]3CC[C@]12C [ELTANOLONE]	2	12.6	0	0	1 days	0	0	0	0	0	0	0	0	0	0
CCN(CCO)CCCC(C)Nc1ccnc2cc(Cl)ccc12 (stereo not given) [HYDROXYCHLOROQUINE]	1	11.1	0	0	1 year	0	0	0	2	1	5.3	0	1	1	0
CCN(CC)C(=O)C1(c2ccccc2)CC1CN (stereo not given)	0	0	0	0	6 months	0	0	0	1	1	0	0	0	0	0
CCC1=C[C@@H]2CN(C1)Cc1c([nH]c3ccccc13)[C@@](C(=O)OC)(c1cc3c(cc1OC)N(C)[C@H]1[C@@](O)(C(=O)OC)[C@H](OC(C)=O)[C@]4(CC)C=CCN5CC[C@]31[C@@H]54)C2 [VINORELBINE]	6	24.1	0	0	2 days - 10 days	0	0	0	3	2	6	0	1	0	0
C[C@]12CCC(=O)C=C1CC[C@@H]1[C@@H]2[C@@H](O)C[C@@]2(C)[C@H]1CC[C@]2(O)C(=O)CO [HYDROCORTISONE]	1	25	10	0	2 months	0	0	0	0	0	0	0	1	0	0
COc1cc2oc(=O)c(C)c(C)c2cc1OCCCN1CCN(c2ccccc2OC)CC1 [ENSACULIN]	1	8.3	0	0	2 weeks	0	0	0	0	0	0	0	0	0	0
[H]/N=C(/N)N/C(=N/[H])NCCc1ccccc1 [PHENFORMIN]	0	0	0	0	1 week	0	0	0	1	0	0	0	0	0	0
COc1cc2nc(N3CCN(C(=O)C4CCCO4)CC3)nc(N)c2cc1OC (stereo not given) [TERAZOSIN]	1	1.9	0	0	4 months	0	0	0	1	0	0	0	0	0	0
CCCC(C)(COC(N)=O)COC(=O)NC(C)C (stereo not given) [CARISOPRODOL]	0	0	0	0	2 weeks	0	0	0	1	1	0	0	0	0	0
O=C(CCBr)N1CCN(C(=O)CCBr)CC1 [PIPOBROMAN]	0	0	0	0	2 months	0	0	0	1	1	0	0	0	0	0
CCNc1cccnc1N1CCN(C(=O)c2cc3cc(OC)ccc3[nH]2)CC1 [ATEVIRDINE MESYLATE]	0	0	0	0	3 weeks	0	0	0	1	0	6.7	0	0	0	0
